Data taken from patent US12723063B2, “GIPR-agonist compounds” (Eli Lilly and Company, priority 2019, dated 2026).
*1 amine or outer side, *2 acyl side, *3 side chain or, on linkers, in order; H or OH if unused. Where a SMILES comes first, the peptide text is derived from it. Side-chain parts run from the residue outwards. [ ]: non-standard residue; d: D form. The star is where a group is joined. C20 diacid = O=C(O)CCCCCCCCCCCCCCCCCCC(=O)*; γGlu = O=C(O)[C@H](CCC(=O)[*:2])N[*:1]; αMeY = C[C@](N)(Cc1ccc(O)cc1)C(=O)O; 4Pal = N[C@@H](Cc1ccncc1)C(=O)O; αMeL = CC(C)C[C@](C)(N)C(=O)O; Iva = CC[C@](C)(N)C(=O)O; Orn = NCCC[C@H](N)C(=O)O; AEEA = NCCOCCOCC(=O)O; Aib = CC(C)(N)C(=O)O

Experiments:
Experiment in all cases: cAMP functional assay (HTRF) in HEK293 cells in presence of 0.1% casein
Format in all cases: cell-based
[1] = target: T1, human GLP-1 receptor (GLP-1R) (Homo sapiens, UniProt P43220); conditions: HEK293 cells expressing human GLP-1R, geometric mean, read-out: hGLP1R cAMP Rel EC50 nM (SEM, n)
T1 construct: expressed in transfected cells; host or cells: HEK293
T1 sequence (P43220 24-463): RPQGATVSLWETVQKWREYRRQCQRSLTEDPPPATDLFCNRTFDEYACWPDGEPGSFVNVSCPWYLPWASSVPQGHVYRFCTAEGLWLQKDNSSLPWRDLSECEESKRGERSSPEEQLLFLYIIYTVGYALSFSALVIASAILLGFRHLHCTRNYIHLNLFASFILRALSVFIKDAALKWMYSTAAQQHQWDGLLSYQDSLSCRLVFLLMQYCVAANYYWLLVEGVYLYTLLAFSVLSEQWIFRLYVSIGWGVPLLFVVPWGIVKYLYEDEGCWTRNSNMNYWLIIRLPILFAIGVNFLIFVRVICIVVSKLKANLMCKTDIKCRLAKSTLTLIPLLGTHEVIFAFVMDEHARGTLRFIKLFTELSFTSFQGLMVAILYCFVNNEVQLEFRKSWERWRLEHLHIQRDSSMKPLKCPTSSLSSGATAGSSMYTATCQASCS

[2] = target: T2, human glucagon receptor (GcgR) (Homo sapiens, UniProt P47871); conditions: HEK293 cells expressing human GcgR, geometric mean, read-out: hGcgR cAMP Rel EC50 nM (SEM, n)
T2 construct: expressed in transfected cells; host or cells: HEK293
T2 sequence (P47871 26-477): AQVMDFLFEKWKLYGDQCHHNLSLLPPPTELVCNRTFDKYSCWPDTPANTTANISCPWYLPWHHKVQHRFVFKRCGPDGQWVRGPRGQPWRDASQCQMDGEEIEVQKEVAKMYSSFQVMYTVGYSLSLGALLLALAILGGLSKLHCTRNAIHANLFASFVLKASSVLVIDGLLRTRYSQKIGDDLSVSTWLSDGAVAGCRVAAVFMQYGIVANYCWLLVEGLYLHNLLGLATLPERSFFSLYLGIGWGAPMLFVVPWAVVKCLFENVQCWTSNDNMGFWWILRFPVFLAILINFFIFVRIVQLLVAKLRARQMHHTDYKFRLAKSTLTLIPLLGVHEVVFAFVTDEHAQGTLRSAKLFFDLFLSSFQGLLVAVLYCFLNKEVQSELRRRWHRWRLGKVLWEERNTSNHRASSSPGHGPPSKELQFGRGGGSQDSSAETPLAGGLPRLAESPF

[3] = target: T3, human glucose-dependent insulinotropic peptide receptor (GIPR) (Homo sapiens, UniProt P48546); conditions: HEK293 cells expressing human GIPR, geometric mean, read-out: hGIPR cAMP Rel EC50 nM (SEM, n)
T3 construct: expressed in transfected cells; host or cells: HEK293
T3 sequence (P48546 22-466): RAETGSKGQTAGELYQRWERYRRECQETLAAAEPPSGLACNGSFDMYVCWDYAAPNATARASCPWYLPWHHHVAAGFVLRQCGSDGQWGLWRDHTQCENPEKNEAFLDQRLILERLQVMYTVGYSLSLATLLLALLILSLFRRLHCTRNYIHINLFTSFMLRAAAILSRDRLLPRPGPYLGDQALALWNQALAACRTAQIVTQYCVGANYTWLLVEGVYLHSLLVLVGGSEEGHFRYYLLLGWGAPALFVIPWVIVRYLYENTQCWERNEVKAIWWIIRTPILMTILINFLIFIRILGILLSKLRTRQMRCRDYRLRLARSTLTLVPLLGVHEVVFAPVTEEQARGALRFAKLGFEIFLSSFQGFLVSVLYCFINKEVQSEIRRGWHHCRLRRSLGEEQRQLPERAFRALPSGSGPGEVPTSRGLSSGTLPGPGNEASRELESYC

| Structure (SMILES) | EC50 [1] [nM] | EC50 [2] [nM] | EC50 [3] [nM] |
| --- | --- | --- | --- |
| CC[C@H](C)[C@H](NC(=O)[C@H](CO)NC(=O)[C@H](Cc1ccc(O)cc1)NC(=O)[C@H](CC(=O)O)NC(=O)[C@H](CO)NC(=O)[C@@H](NC(=O)[C@H](Cc1ccccc1)NC(=O)[C@@H](NC(=O)CNC(=O)[C@H](CCC(=O)O)NC(=O)[C@@H](C)NC(=O)[C@@H](N)Cc1ccc(O)cc1)[C@@H](C)O)[C@@H](C)CC)C(=O)N[C@@H](CC(C)C)C(=O)N[C@@H](CC(C)C)C(=O)N[C@@H](CC(=O)O)C(=O)N[C@@H](CCCCN)C(=O)N[C@@H](CCCCNC(=O)COCCOCCNC(=O)COCCOCCNC(=O)CC[C@H](NC(=O)CCCCCCCCCCCCCCCCCCC(=O)O)C(=O)O)C(=O)N[C@@H](Cc1c[nH]cn1)C(=O)N[C@@H](CCC(N)=O)C(=O)NC(C)(C)C(=O)N[C@@H](CC(=O)O)C(=O)N[C@@H](Cc1ccccc1)C(=O)N[C@H](C(=O)N[C@@H](CC(N)=O)C(=O)N[C@@H](Cc1c[nH]c2ccccc12)C(=O)N[C@@H](CC(C)C)C(=O)N[C@@H](CC(C)C)C(=O)N[C@@H](C)C(=O)N[C@@H](CCC(N)=O)C(=O)NCC(=O)N1CCC[C@H]1C(=O)N[C@@H](CO)C(=O)N[C@@H](CO)C(=O)NCC(=O)N[C@@H](C)C(=O)N1CCC[C@H]1C(=O)N1CCC[C@H]1C(=O)N1CCC[C@H]1C(=O)N[C@@H](CO)C(N)=O)C(C)C [Example 9] (H-Y[dA]EGTFISDYSILLDKK([AEEA-AEEA-γGlu-C20 diacid])HQ[Aib]DFVNWLLAQGPSSGAPPPS-NH2) | > 100 | > 5000 | 0.165 |
| CC[C@H](C)[C@H](NC(=O)[C@H](CCCN)NC(=O)[C@H](CC(=O)O)NC(=O)[C@H](CC(C)C)NC(=O)[C@](C)(CC(C)C)NC(=O)[C@@H](NC(=O)[C@H](CO)NC(=O)[C@H](Cc1ccc(O)cc1)NC(=O)[C@H](CC(=O)O)NC(=O)[C@H](CO)NC(=O)[C@@H](NC(=O)[C@H](Cc1ccccc1)NC(=O)[C@@H](NC(=O)CNC(=O)[C@H](CCC(=O)O)NC(=O)C(C)(C)NC(=O)[C@@H](N)Cc1ccc(O)cc1)[C@@H](C)O)[C@@H](C)CC)[C@@H](C)CC)C(=O)N[C@@H](Cc1c[nH]cn1)C(=O)N[C@@H](CCC(N)=O)C(=O)NC(C)(C)C(=O)N[C@@H](CCC(=O)O)C(=O)N[C@@H](Cc1ccccc1)C(=O)N[C@H](C(=O)N[C@@H](CCC(=O)O)C(=O)N[C@@H](Cc1ccc(O)cc1)C(=O)N[C@@H](CCCCNC(=O)COCCOCCNC(=O)COCCOCCNC(=O)CC[C@H](NC(=O)CCCCCCCCCCCCCCCCCCC(=O)O)C(=O)O)C(=O)N[C@@H](CC(C)C)C(=O)N[C@@H](CCC(=O)O)C(=O)N[C@@H](CCC(N)=O)C(=O)NCC(=O)N1CCC[C@H]1C(=O)N[C@@H](CO)C(=O)N[C@@H](CO)C(=O)NCC(=O)N[C@@H](C)C(=O)N1CCC[C@H]1C(=O)N1CCC[C@H]1C(=O)N1CCC[C@H]1C(=O)N[C@@H](CO)C(N)=O)C(C)C [Example 106] (H-Y[Aib]EGTFISDYSI[αMeL]LD[Orn]IHQ[Aib]EFVEYK([AEEA-AEEA-γGlu-C20 diacid])LEQGPSSGAPPPS-NH2) | > 5000 | > 5000 | 0.014 |
| CC[C@H](C)[C@H](NC(=O)[C@H](CO)NC(=O)[C@H](Cc1ccc(O)cc1)NC(=O)[C@H](CC(=O)O)NC(=O)[C@H](CO)NC(=O)[C@@H](NC(=O)[C@H](Cc1ccccc1)NC(=O)[C@@H](NC(=O)CNC(=O)[C@H](CCC(=O)O)NC(=O)C(C)(C)NC(=O)[C@@H](N)Cc1ccc(O)cc1)[C@@H](C)O)[C@@H](C)CC)C(=O)N[C@@H](C)C(=O)N[C@@H](CC(C)C)C(=O)N[C@@H](CC(=O)O)C(=O)N[C@@H](CCCCN)C(=O)N[C@H](C(=O)N[C@@H](Cc1c[nH]cn1)C(=O)N[C@@H](CCC(N)=O)C(=O)NC(C)(C)C(=O)N[C@@H](CCC(=O)O)C(=O)N[C@@H](Cc1ccccc1)C(=O)N[C@H](C(=O)N[C@@H](CC(N)=O)C(=O)N[C@@H](Cc1ccc(O)cc1)C(=O)N[C@@H](CCCCNC(=O)COCCOCCNC(=O)COCCOCCNC(=O)CC[C@H](NC(=O)CCCCCCCCCCCCCCCCCCC(=O)O)C(=O)O)C(=O)N[C@@H](CC(C)C)C(=O)N[C@@H](C)C(=O)NCC(=O)NCC(=O)N1CCC[C@H]1C(=O)N[C@@H](CO)C(=O)N[C@@H](CO)C(=O)NCC(=O)N[C@@H](C)C(=O)N1CCC[C@H]1C(=O)N1CCC[C@H]1C(=O)N1CCC[C@H]1C(=O)N[C@@H](CO)C(N)=O)C(C)C)[C@@H](C)CC [Example 96] (H-Y[Aib]EGTFISDYSIALDKIHQ[Aib]EFVNYK([AEEA-AEEA-γGlu-C20 diacid])LAGGPSSGAPPPS-NH2) | > 5000 | > 5000 | 0.0251 |
| CC[C@H](C)[C@H](NC(=O)[C@H](Cc1ccccc1)NC(=O)[C@@H](NC(=O)CNC(=O)[C@H](CCC(=O)O)NC(=O)C(C)(C)NC(=O)[C@@H](N)Cc1ccc(O)cc1)[C@@H](C)O)C(=O)N[C@@H](CO)C(=O)N[C@@H](CC(=O)O)C(=O)N[C@@H](Cc1ccc(O)cc1)C(=O)N[C@@H](CO)C(=O)N[C@H](C(=O)N[C@@](C)(CC(C)C)C(=O)N[C@@H](CC(C)C)C(=O)N[C@@H](CC(=O)O)C(=O)N[C@@H](CCCCN)C(=O)N[C@@H](CCCCNC(=O)COCCOCCNC(=O)COCCOCCNC(=O)CC[C@H](NC(=O)CCCCCCCCCCCCCCCCCCC(=O)O)C(=O)O)C(=O)N[C@@H](Cc1c[nH]cn1)C(=O)N[C@@H](CCC(N)=O)C(=O)NC(C)(C)C(=O)N[C@@H](CC(=O)O)C(=O)N[C@@H](Cc1ccccc1)C(=O)N[C@H](C(=O)N[C@@H](CCC(=O)O)C(=O)N[C@@](C)(Cc1ccc(O)cc1)C(=O)N[C@@H](CC(C)C)C(=O)N[C@@H](CC(C)C)C(=O)N[C@@H](CCC(=O)O)C(=O)N[C@@H](C)C(=O)NCC(=O)N1CCC[C@H]1C(=O)N[C@@H](CO)C(=O)N[C@@H](CO)C(=O)NCC(=O)N[C@@H](C)C(=O)N1CCC[C@H]1C(=O)N1CCC[C@H]1C(=O)N1CCC[C@H]1C(=O)N[C@@H](CO)C(N)=O)C(C)C)[C@@H](C)CC [Example 90] (H-Y[Aib]EGTFISDYSI[αMeL]LDKK([AEEA-AEEA-γGlu-C20 diacid])HQ[Aib]DFVE[αMeY]LLEAGPSSGAPPPS-NH2) | > 5000 | > 5000 | 0.0272 |
| CC[C@H](C)[C@H](NC(=O)[C@H](CO)NC(=O)[C@H](Cc1ccc(O)cc1)NC(=O)[C@H](CC(=O)O)NC(=O)[C@H](CO)NC(=O)[C@@H](NC(=O)[C@](C)(CC)NC(=O)[C@@H](NC(=O)CNC(=O)[C@H](CCC(=O)O)NC(=O)C(C)(C)NC(=O)[C@@H](N)Cc1ccc(O)cc1)[C@@H](C)O)[C@@H](C)CC)C(=O)N[C@@](C)(CC(C)C)C(=O)N[C@@H](CC(C)C)C(=O)N[C@@H](CC(=O)O)C(=O)N[C@@H](CCCCN)C(=O)N[C@@H](CCCCNC(=O)COCCOCCNC(=O)COCCOCCNC(=O)CC[C@H](NC(=O)CCCCCCCCCCCCCCCCCCC(=O)O)C(=O)O)C(=O)N[C@@H](Cc1c[nH]cn1)C(=O)N[C@@H](CCC(N)=O)C(=O)NC(C)(C)C(=O)N[C@@H](CC(=O)O)C(=O)N[C@@H](Cc1ccccc1)C(=O)N[C@H](C(=O)N[C@@H](CCC(=O)O)C(=O)N[C@@H](Cc1ccncc1)C(=O)N[C@@H](CC(C)C)C(=O)N[C@@H](CC(C)C)C(=O)N[C@@H](CCC(=O)O)C(=O)NCC(=O)NCC(=O)N1CCC[C@H]1C(=O)N[C@@H](CO)C(=O)N[C@@H](CO)C(=O)NCC(=O)N[C@@H](C)C(=O)N1CCC[C@H]1C(=O)N1CCC[C@H]1C(=O)N1CCC[C@H]1C(=O)N[C@@H](CO)C(N)=O)C(C)C [Example 74] (H-Y[Aib]EGT[Iva]ISDYSI[αMeL]LDKK([AEEA-AEEA-γGlu-C20 diacid])HQ[Aib]DFVE[4Pal]LLEGGPSSGAPPPS-NH2) | > 5000 | 627 | 0.0167 |
| CC[C@H](C)[C@H](NC(=O)[C@H](CO)NC(=O)[C@H](Cc1ccc(O)cc1)NC(=O)[C@H](CC(=O)O)NC(=O)[C@H](CO)NC(=O)[C@@H](NC(=O)[C@](C)(CC)NC(=O)[C@@H](NC(=O)CNC(=O)[C@H](CCC(=O)O)NC(=O)C(C)(C)NC(=O)[C@@H](N)Cc1ccc(O)cc1)[C@@H](C)O)[C@@H](C)CC)C(=O)N[C@@](C)(CC(C)C)C(=O)N[C@@H](CC(C)C)C(=O)N[C@@H](CC(=O)O)C(=O)N[C@@H](CCCN)C(=O)N[C@@H](CCCCNC(=O)COCCOCCNC(=O)COCCOCCNC(=O)CC[C@H](NC(=O)CCCCCCCCCCCCCCCCCCC(=O)O)C(=O)O)C(=O)N[C@@H](Cc1c[nH]cn1)C(=O)N[C@@H](CCC(N)=O)C(=O)NC(C)(C)C(=O)N[C@@H](CC(=O)O)C(=O)N[C@@H](Cc1ccccc1)C(=O)N[C@H](C(=O)N[C@@H](CCC(=O)O)C(=O)N[C@@H](Cc1ccncc1)C(=O)N[C@@H](CC(C)C)C(=O)N[C@@H](CC(C)C)C(=O)N[C@@H](CCC(=O)O)C(=O)N[C@H](C(=O)NCC(=O)N1CCC[C@H]1C(=O)N[C@@H](CO)C(=O)N[C@@H](CO)C(=O)NCC(=O)N[C@@H](C)C(=O)N1CCC[C@H]1C(=O)N1CCC[C@H]1C(=O)N1CCC[C@H]1C(=O)N[C@@H](CO)C(N)=O)[C@@H](C)O)C(C)C [Example 77] (H-Y[Aib]EGT[Iva]ISDYSI[αMeL]LD[Orn]K([AEEA-AEEA-γGlu-C20 diacid])HQ[Aib]DFVE[4Pal]LLETGPSSGAPPPS-NH2) | > 5000 | 2660 | 0.0265 |
